Target: T1, h-rP2X7 (human 1-346, rat 347-595) (Homo sapiens, UniProt Q99572, A348T/A433Q/A445S/A505Q/C493A/C552S/D356N/D438E/D448H/D537E/D539E/E585Q/F350C/F353L/F525L/G559V/H366R/H491R/H521E/I367V/I459M/K464I/K501R/L354I/L516I/M434T/N361T/N413D/P443S/Q375E/R410W/R419K/R463Q/R514S/R544K/R576K/S359A/S390P/S407P/S481N/S490N/S540A/S584T/S593Y/T437L/T449S/T467V/T541I/V378A/V475D/V522A/V538G/W370S)
T1 construct: h-rP2X7 (human 1-346, rat 347-595); expressed in transfected cells; host or cells: HEK293 (transient)
T1 sequence (Q99572 1-595 A348T/F350C/F353L/L354I/D356N/S359A/N361T/H366R/I367V/W370S/Q375E/V378A/S390P/S407P/R410W/N413D/R419K/A433Q/M434T/T437L/D438E/P443S/A445S/D448H/T449S/I459M/R463Q/K464I/T467V/V475D/S481N/S490N/H491R/C493A/K501R/A505Q/R514S/L516I/H521E/V522A/F525L/D537E/V538G/D539E/S540A/T541I/R544K/C552S/G559V/R576K/S584T/E585Q/S593Y): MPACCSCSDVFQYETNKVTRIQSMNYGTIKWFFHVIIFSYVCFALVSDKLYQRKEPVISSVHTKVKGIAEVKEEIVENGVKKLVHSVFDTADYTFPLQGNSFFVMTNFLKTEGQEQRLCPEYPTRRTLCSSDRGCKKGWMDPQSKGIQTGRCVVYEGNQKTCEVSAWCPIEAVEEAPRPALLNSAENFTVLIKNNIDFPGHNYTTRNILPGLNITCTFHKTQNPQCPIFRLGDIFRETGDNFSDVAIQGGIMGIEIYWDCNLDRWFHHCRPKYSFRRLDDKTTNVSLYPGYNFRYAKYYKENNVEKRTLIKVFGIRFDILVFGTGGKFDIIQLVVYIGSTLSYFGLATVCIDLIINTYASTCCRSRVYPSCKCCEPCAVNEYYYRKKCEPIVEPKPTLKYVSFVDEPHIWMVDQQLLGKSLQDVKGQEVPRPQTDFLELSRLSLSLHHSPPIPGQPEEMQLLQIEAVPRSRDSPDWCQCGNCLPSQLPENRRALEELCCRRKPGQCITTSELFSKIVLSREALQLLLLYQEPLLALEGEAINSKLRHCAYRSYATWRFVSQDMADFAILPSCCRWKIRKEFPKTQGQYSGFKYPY
Assay: Whole-cell recordings in HEK293 cells expressing chimeric h-rP2X7 receptors
Type: cell-based
Settings: low divalent concentrations, after removal of BzATP, n=10
From the text: Chimeras. A silent restriction site (NheI) was introduced at the equivalent positions in the rat and human cDNAs using the Pfu mutagenesis kit (Stratagene) (T to G at 1069 in rP2X7; G to A at 1072 in hP2X7) . A NheI-XhoI fragment corresponding to 3′ extremity of each cDNA was then excised and subcloned in the opposite plasmid (i.e. human 3′ end into rat background). The resulting chimeras were h-rP2X7 (human 1-346, rat 347-595) and r-hP2X7 (rat 1-346, human 347-595) (FIG. 5). All constructions were sequenced on their entire coding region.
Cell culture. HEK293 cells were transiently transfected with cDNA (1 μg/ml) and lipofectin dissolved in Optimem (GIBCO) placed into petri dishes containing four coverslips onto which cells were plated at a density of about 8×10^4/coverslip. Cells were washed 5 h later and normal DMEM applied. Electrophysiological studies or dye uptake measurements were carried out 18-49 h later. For each set of transfections, parallel experiments were performed on HEK cells transfected with cDNA encoding both rP2X7 and hP2X7 receptors.
Electrophysiological experiments. Whole-cell recordings were made using the EPC9 patch-clamp amplifier and Pulse acquisition programs (HEKA, Lambrecht, Germany). Patch pipettes (5-7 MΩ) contained (mM) CsCl or NaCl 154, EGTA 10, HEPES 5. […]

Compound: Nc1ncnc2c1ncn2[C@@H]1O[C@H](COP(=O)(O)OP(=O)(O)OP(=O)(O)O)[C@@H](OC(=O)c2ccc(C(=O)c3ccccc3)cc2)[C@H]1O [BzATP, 3′-O-(4-benzoyl)benzoyl ATP]
- current measured at 30 s, of peak: 70±4

Reference: US6509163B1, “Methods of screening modulators of mammalian P2X7 purinergic receptors” (Glaxo Group Limited, priority 1997, dated 2003)
